In patent US9328130B2, “Method of treating organism by biologically active compounds specifically delivered into mitochondria, pharmaceutical composition required for the use of the method and a compound applicable for this purpose” (MITOTECH S.A., priority 2005, dated 2016):

Assays:
Hela cells [1] = assay: Necrosis after photodynamic treatment (chloromethyl-X-rosamine, green light); assay type: cell-based, human
Method: Protection from photodynamic treatment was studied using cultured HeLa cells. Cells were incubated with photosensitizer chloromethyl-X-rosamine (0.5 μM, 15 min) which was then selectively accumulated within mitochondria. Cells were photoirradiated with green light (at maximum absorption for photosensitizer of […]) through the objective of microscope Axiovert 200M (Zeiss, Germany) for 1-2 min and analyzed 5 h later. Necrosis was determined by staining of nuclei with propidium iodide (2 μg/ml, 5 min).

Hela cells [2] = assay: Morphology of HeLa cells; assay type: cell-based, human
Method: (§1) Normal fibroblasts from the human skin and lung and HeLa cells were cultivated at low cell density (20-30% confluency). Morphometric measurements were carried out for cell area, dispersion and elongation. Cytoskeleton structures were analyzed by staining the fixed cell preparations with rhodamine falloidin (actin filaments), antibodies against tubulin (microtubules) and vinculin (surface contacts). Mobility of the cells was examined with the help of microvideo camera.

[3] = tested on: coronary arteries of the isolated hearts of rats; assay: Isolated perfused rat heart, perfusion pressure during H2O2 introduction; assay type: in vivo
Method: It is known that reactive oxygen species (ROS) have regulatory or toxic effects on a cardiac muscle depending on their concentrations. When studying SkQ1 compound its ability to modulate ROS action has been found. Experiments have been carried out in the isolated hearts of rats which were given SkQ1 intravenously or with nutrition (50 μg/kg). The heart was isolated 2 hours after intravenous introduction of the compound, or after 2-week nutritional supplementation. The heart was perfused retrogradely according to a standard procedure by Krebs solution with a constant rate, and perfusion pressure (PP) characterized the tonus of coronary arteries. A spontaneous heart rate and isovolumic pressure in a left ventricular latex balloon were also recorded. These parameters were monitored at 40-minute introduction of 150 mcM H2O2, a standard ROS generator.

Hela cells [4] = assay: Transmission of apoptotic signal between inducer and recipient slides; assay type: cell-based, human; details: for apoptosis at slide-recipient: TNF
Method: HeLa cells were used in these experiments. Cells grown on a glass slide were treated with different apoptosis-inducing agents (tumor necrosis factor (TNF), staurosporine, H2O2) for 3 h. Then the glass slide with cells (inducer) was washed to remove these reagents and placed into Petri plate to come into contact with glass slide (recipient) with cells grown in the absence of any apoptosis-inducing agent. After 16-18 h of subsequent growth and staining the cells with Hoechst 33342 as described above, apoptosis at both glass slides was analyzed.
Thus the main mediator of apoptosis signal was H2O2.

human lung fibroblasts = assay: Protection from apoptosis caused by H2O2; assay type: cell-based; details: preincubation with 20 nM for 6 days
Method: Normal diploid fibroblasts from human skin and lung, human uterus carcinoma cells (HeLa cells) and human lymphoma cells (U 937 strain) were used in this experiment. Cells were cultivated in standard media (DMEM or RPMI) in the presence of 10% fetal serum at 37° C. and 5% CO2. Experiments were carried out on the cultured cells grown to 30-50% confluency. H2O2 was added once and the cells were analyzed after 18-24 h of incubation. Apoptotic death was monitored by condensation of chromatin and nucleus fragmentation after staining the cells with Hoechst 33342 (1 μg/ml, 15 min). 300-500 cells were taken into account from each preparation and the final results are the average of 3-5 independent experiments. Necrosis was determined by staining of nuclei with propidium iodide (2 μg/ml, 5 min). […] It was confirmed that apoptosis in all cases was accompanied with decrease of mitochondrial membrane potential, release of cytochrome c from mitochondria into cytoplasm and activation of caspases.

[5] = tested on: respiratory chain of rat liver mitochondria; assay type: biochemical
Method: FIG. 5 describes the oxidation of quinols of “MitoQ” and “SkQ1” by respiratory chain of rat liver mitochondria energized with succinate (5 mM) in the presence of 2 μM rotenone. After complete reduction of […] the respiratory chain was blocked with 25 mM malonate and reoxidation rate of “MitoQ” and “SkQ1” was measured. In order to examine whether the test compounds (SkQ1 and MitoQ) can be reduced by the respiratory chain of mitochondria, changes of the ratio between oxidized and reduced forms of test compounds were measured in the presence of respiratory substrates in a medium used for isolation of rat liver mitochondria. The measurements were carried out in the presence of mitochondria (protein concentration 0.2 mg/ml).

[6] = Spontaneous oxidation of reduced (quinol) forms by air oxygen; assay type: physicochemical; details: 20 mM MOPS-KOH, pH=7.6; aerobic
Method: Stability of the reduced (quinols) forms of SkQ1 and MitoQ under aerobic conditions was examined by analysis of the absolute absorption spectra of these compounds in a range from 240 to 310 nm using double-beam spectrophotometer Pye Unicam SP1100, England. Quinone derivatives were reduced with sodium tetrahydroborate in the medium containing 20 mM MOPS-KOH, pH=7.6. […] The level of reduced quinones was estimated by the size of peak area using the weighing method; absolute absorption value at 267 nm (maximum absorption) was used as a control.

[7] = tested on: Normal fibroblasts from the human skin and lung; assay: Morphology and mobility of normal fibroblasts; assay type: cell-based; details: 20 nM for 6 days
Method: as §1

Hela cells [8] = tested on: Hela cells
[9] = Light-dependent inactivation of gramicidin channel in model lipid membrane with phthalocyanine photosensitizer; assay type: biochemical; details: SkQ1 at 1 μM
[10] = Transfer across the planar bilayer phospholipid membrane; assay type: physicochemical; details: 50 mM TrisHCl pH 7.4; 10^−7 to 10^−5 M; distributes according to Nernst equation
Text: The experimental method has been used several times before in the experiments aimed at the exploring of an ability of different ions to penetrate the planar bilayer lipid membrane and is described in details Liberman […]., 1969, Nature, 222, 1076-8. This method includes the use of two chambers filled in with water-based solution and separated by bilayer membrane, also the electrometrical registration of transfer of charged compounds capable of penetration across such membrane from one chamber to another. In our experiment the membrane was made of mixture of […] and diphytanoyl derivative of […] dissolved in decane; both chambers were filled with 50 mM TrisHCl, pH 7.4 containing 10^-7 M SkQ1.

SMILES: CC1=C(C)C(=O)C(CCCCCCCCCC[P+](c2ccccc2)(c2ccccc2)c2ccccc2)=CC1=O.[Br-] [SkQ1, 2,3-dimethyl-1,4-benzoquinon-5-decyl-triphenylphosphonium bromide]
- necrotic cell death (Hela cells [1]; 1 μM added 1 h before photoirradiation): 15±5%
- necrosis from photodynamic treatment (Hela cells [1]; preincubated with 20 nM for 6 days): 25±5%
- amount of actin filaments (Hela cells [2]): increased
- mean density of filaments (Hela cells [2]): not changed
- mean area, times higher (Hela cells [2]; same treatment as fibroblasts): 2.6 times
- PP change at the end of H2O2 introduction ([3]; prolonged consumption): −29±6 mmHg
- maximal PP decline ([3]; prolonged consumption (2-week nutritional supplementation)): −38±5 mmHg
- maximal PP decline versus initial level before H2O2 ([3]; single intravenous introduction): −43±5 mmHg
- minimal perfusion pressure (PP) level ([3]; single intravenous introduction 50 μg/kg, heart isolated 2 hours later, 150 mcM H2O2): 77±2 mm Hg
- H2O2 concentration in the medium (Hela cells [4]; 24 hours after contact, inductor cells preincubated): 40 ± 10 nM
- apoptosis at slide-recipient (Hela cells [4]; preincubation of inducer with 20 nM): 17±3%
- apoptosis at slide-recipient (Hela cells [4]; preincubation of recipient cells): 16±4%
- protective effect on recipient cells (Hela cells [4]; corrected for 12±3% apoptosis from emetine): ~100%
- apoptosis at slide-inducer caused by TNF (Hela cells [4]; inductor cells incubated with 20 nM for 6 days): 90±5%
- H2O2 concentration in the medium (Hela cells [4]; recipient cells preincubated): did not lead to decrease of H2O2 concentration
- apoptosis among cell population (human lung fibroblasts; 100 μM H2O2): 7±3%
- apoptosis among cell population (human lung fibroblasts; 200 μM H2O2): 12±5%
- concentration not suppressing mitochondrial respiration [5]: up to 10 μM
- time compound retains intact under incubation conditions in biological media ([5]; whole experiment): at least tens of minutes
- autooxidation of the reduced (quinol) form by air oxygen relative to MitoQ [6]: about three-fold lower
- amount of actin filaments, times higher [7]: 3.7 times
- dispersion index lowered by factor [7]: 2.4
- filament density in comparison to the control [7]: 136%
- mean cell area, times higher than control [7]: 2.9 times
- mobility of fibroblasts [7]: distinctly lower
- rate of fibroblast proliferation [7]: no influence on the rate of fibroblast proliferation
- elongation index ([7]; control 2.34): 0.69
- LD50 in the presence of hydrogen peroxide (Hela cells [8]; 100 μM hydrogen peroxide): 20 µM
- LD50 (concentrations at which 50% cells die) (Hela cells [8]; 2 h of incubation, no hydrogen peroxide): 20 µM
- light-dependent inactivation of gramicidin [9]: completely prevents
- penetration of planar bilayer phospholipid membrane [10]: penetrates the planar bilayer phospholipid membrane
